Results: patent US20230057602A1, “METHODS OF TREATMENT WITH ANTIBODIES AGAINST BCMA AND CD3” (BRISTOL-MYERS SQUIBB COMPANY, priority 2019, published 2023)

What was measured:
[1] = Subcutaneous versus intravenous bioavailability (data not shown); format: in vivo
Procedure: In some embodiments of any aspect of the invention, the multispecific (e.g. bispecific) antibody is administered intravenously or subcutaneously.

[2] = test system: KMS12-PE BCMA-expressing myeloma cell line; test: CC-93269-induced redirected lysis of KMS12-PE; format: cell-based, human; conditions: E:T 1:1, 72 hours, 3 donors
Procedure: Four BCMA-expressing tumour cell lines purchased from ATCC (Manassa, Va.) (Multiple Myeloma cell lines: BCMA high-H-929 (catalog number CRL-9068), BCMA mid-SKMM2 and -MM.1S (catalog number ACC-430) and BCMA low-KMS12-PE (catalog number ACC-606)) were co-cultured with T-cells from 3 independent healthy donors (Bloodworks Northwest, Seattle, Wash.), at a E:T ratio of 1:1, i.e. 1 T cell: 1 myeloma cell. […]; 0.033-2.6 nM) for 72 hours.
FIG. 7 illustrates CC-93269-induced redirected lysis of BCMA+ tumour cell lines following co-culture with donor T cells from one healthy donor; results from all 3 independent healthy donors are summarised in Table 19. In 96-well round bottom plates and a final volume of 100 μL, 1×10^4 CellTrace Violet-labeled T-cells were plated with 1×10^4 CellTrace CFSE-labeled target cells, in the presence of varying concentrations of CC-93269 in combination with varying concentrations of dexamethasone (7-point dose response). The cocultures were incubated at 37° C. with 5% CO2. […] One-hundred percent viability was determined by the absolute cell count of live tumour cells at no addition of CC-93269 or dexamethasone; an absolute cell count of 0 live cells was used to define 100% killing of tumour cells. […] The IC50 values were calculated using non-linear regression analysis, sigmoidal dose-response using GraphPad Prism (version 5.0) software.

[3] = test system: Relapsed/Refractory Multiple Myeloma (RRMM) patients; test: Clinical study of CC-93269 in RRMM: efficacy (IMWG response, MRD); format: in vivo, human
Procedure: This study involved 19 RRMM patients who had received ≥3 prior regimens without prior BCMA-directed therapy. Prior treatments included autologous stem cell transplantation, allogenic stem cell transplantation, lenalidomide, pomalidomide, bortezomib, carfilzomib, and daratumumab (DARA). All patients had MM refractory to their last line of therapy.
CC-93269 (42-TCBcv), a bispecific antibody that specifically binds to BCMA bivalently and CD3 monovalently, was administered intravenously over 2 hours on Days 1, 8, 15, and 22 for Cycles 1-3; Days 1 and 15 for Cycles 4-6; and on Day 1 for Cycle 7 and beyond, all in 28-day cycles. 14 patients received a fixed dose of CC-93269 at each of the intervals: 0.15 mg (Cohort 1, n=1), 0.5 mg (Cohort 2, n=1), 1.5 mg (Cohort 3, n=1), 3 mg (Cohort 4, n=4), 6 mg (Cohort 5, n=3) or 10 mg (Cohort 6, n=4). 5 patients received a starting dose of 6 mg on Cycle 1 Day 1, followed by a dose of 10 mg on Cycle 1 Day 8 and thereafter (Cohort 7, n=5).
Response was assessed using the International Myeloma Working Group (IMWG) Uniform Response Criteria (Rajkumar, 2011a; Kumar, 2016) at every cycle starting on Cycle 2 Day 1 and at the end of treatment. Minimal residual disease (MRD) was assessed by EuroFlow evaluation and NGS (next-generation sequencing) if evaluable. MRD negativity was reported only if a minimum sensitivity of <1 tumour cell in 10^5 nucleated cells was achieved. […]

[4] = 12 patients treated with ≥6 mg (Cohort 5 to 7)
[5] = Patients Treated with <6 mg (n = 7)
[6] = Patients Treated with up to 10 mg (n = 9)
[7] = Patients Treated with ≥6 mg (n = 12)
[8] = Patients treated with up to 3 mg (n = 7)
[9] = Patients treated with up to 6 mg (n = 14)
[10] = patients treated with ≥6 mg (Cohort 5 to 7)

In the case of “CC-93269: bispecific antibody that specifically binds to BCMA bivalently and CD3 monovalently; SEQ ID NO:48, 55, 56, 57 (2×)”, the “bioavailability of subcutaneous administration” value [1] is reported as “comparable bioavailability to intravenous administration”, the “% live tumour cells, Mean” value ([2]; 1 μM Dex co-treatment) is reported as 5.8% and the “% live tumour cells, Mean” value ([2]; DMSO) is reported as 3.71%. For the same substance, the responses ([3]; 4 patients of Cohort 4, consecutive doses of 3 mg) was “No responses were observed”, the “preliminary overall response rate” value ([3]; 9 subjects, maintenance dose of 10 mg (Cohorts 6 and 7)) was 88.9% and the MRD negativity [3, 4] was 75.0%. For the same substance, the “overall response rate (partial response or better)” value [3, 4] was 83.3%, the “stringent complete response (sCR)” value [3, 4] was 33.3% and the “very good partial response (VGPR) or better” value [3, 4] was 58.3%. The “Best response: Minimal response (MR)” value ([3]; All Patients (N =19)) was 0 (0) n (%), the “Best response: Not evaluable” value ([3]; All Patients (N =19)) was 2 (10.5) n (%) and the “Best response: Partial response (PR)” value ([3]; All Patients (N =19)) was 3 (15.8) n (%). For the same substance, the “Best response: Progressive disease (PD)” value ([3]; All Patients (N =19)) was 3 (15.8) n (%), the “Best response: Stringent complete response + complete response (sCR + CR)” value (shortened to “Best response … (sCR + CR)”) ([3]; All Patients (N =19)) was 4 (21.1) n (%) and the “Best response: Very good partial response (VGPR)” value (from here on “Best response … (VGPR)”) ([3]; All Patients (N =19)) was 3 (15.8) n (%). For the same substance, the VGPR or better ([3]; All Patients (N =19)) was 7 (36.8) n (%), the “Overall response (PR or better)” value ([3]; All Patients (N =19), Cohorts 1-7) was 10 (52.6) n (%) and the “response compared with Cohorts 1 to 4 (maintenance dose ≤3 mg)” value ([3]; Cohorts 8 and 9, starting dose 3 mg then maintenance dose ≥6 mg) was “improved response”. For the same substance, the “Best response: Minimal response (MR)” value [3, 5] was 0 (0) n (%), the “Best response: Not evaluable” value [3, 5] was 1 (14.3) n (%) and the “Best response: Partial response (PR)” value [3, 5] was 0 (0) n (%). The “Best response: Progressive disease (PD)” value [3, 5] was 2 (28.6) n (%), the “Best response … (sCR + CR)” value [3, 5] was 0 (0) n (%) and the “Best response … (VGPR)” value [3, 5] was 0 (0) n (%). For the same substance, the VGPR or better [3, 5] was 0 (0) n (%), the “Overall response (PR or better)” value ([3]; Patients Treated with <6 mg (n = 7), Cohorts 1-7) was 0 (0) n (%) and the “Best response: Minimal response (MR)” value [3, 6] was 0 n (%). For the same substance, the “Best response: Not evaluable” value [3, 6] was 1 (11.1) n (%), the “Best response: Partial response (PR)” value [3, 6] was 1 (11.1) n (%) and the “Best response: Progressive disease (PD)” value [3, 6] was 0 n (%). For the same substance, the “Best response … (sCR + CR)” value [3, 6] was 4 (44.4) n (%), the “Best response … (VGPR)” value [3, 6] was 3 (33.3) n (%) and the “Overall response (PR or better)” value ([3]; Patients Treated with up to 10 mg (n = 9), Cohorts 1-9) was 8 (88.9) n (%). For the same substance, the “Best response: Minimal response (MR)” value [3, 7] was 0 (0) n (%), the “Best response: Not evaluable” value [3, 7] was 1 (8.3) n (%) and the “Best response: Partial response (PR)” value [3, 7] was 3 (25.0) n (%). For the same substance, the “Best response: Progressive disease (PD)” value [3, 7] was 1 (8.3) n (%), the “Best response … (sCR + CR)” value [3, 7] was 4 (33.3) n (%) and the “Best response … (VGPR)” value [3, 7] was 3 (25.0) n (%). The MRD negative [3, 7] was 9 (75.0) n (%), the VGPR or better [3, 7] was 7 (58.3) n (%) and the “Overall response (PR or better)” value ([3]; Patients Treated with ≥6 mg (n = 12), Cohorts 1-7) was 10 (83.3) n (%). The “Best response: Minimal response (MR)” value [3, 8] was 0 (0) n (%), the “Best response: Not evaluable” value [3, 8] was 1 (14.3) n (%) and the “Best response: Partial response (PR)” value [3, 8] was 0 (0) n (%). The “Best response: Progressive disease (PD)” value [3, 8] was 2 (28.6) n (%), the “Best response … (sCR + CR)” value [3, 8] was 0 (0) n (%) and the “Best response … (VGPR)” value [3, 8] was 0 (0) n (%). For the same substance, the “Overall response (PR or better)” value ([3]; Patients treated with up to 3 mg (n = 7), Cohorts 1-9) was 0 (0) n (%), the “Best response: Minimal response (MR)” value [3, 9] was 0 (0) n (%) and the “Best response: Not evaluable” value [3, 9] was 3 (21.4) n (%). The “Best response: Partial response (PR)” value [3, 9] was 3 (21.4) n (%), the “Best response: Progressive disease (PD)” value [3, 9] was 5 (35.7) n (%) and the “Best response … (sCR + CR)” value [3, 9] was 1 (7.1) n (%). The “Best response … (VGPR)” value [3, 9] was 1 (7.1) n (%), the “Overall response (PR or better)” value ([3]; Patients treated with up to 6 mg (n = 14), Cohorts 1-9) was 5 (35.7) n (%) and the “preliminary overall response rate” value ([3]; patients treated with up to 6 mg (Cohorts 5, 8, and 9)) was 35.7%. For the same substance, the “median time to response” value [3, 10] was 4.2 weeks and the “time to response, range” value [3, 10] was 4.0-13.1 weeks.
